The values below come from patent US8785463B2, “GPR 119 agonists” (Cadila Healthcare Limited, priority 2010, dated 2014).

This experiment addresses T1, human GPR 119 receptor (Homo sapiens, UniProt Q8TDV5).
T1 construct: expressed in transfected cells
T1 sequence (Q8TDV5 1-335): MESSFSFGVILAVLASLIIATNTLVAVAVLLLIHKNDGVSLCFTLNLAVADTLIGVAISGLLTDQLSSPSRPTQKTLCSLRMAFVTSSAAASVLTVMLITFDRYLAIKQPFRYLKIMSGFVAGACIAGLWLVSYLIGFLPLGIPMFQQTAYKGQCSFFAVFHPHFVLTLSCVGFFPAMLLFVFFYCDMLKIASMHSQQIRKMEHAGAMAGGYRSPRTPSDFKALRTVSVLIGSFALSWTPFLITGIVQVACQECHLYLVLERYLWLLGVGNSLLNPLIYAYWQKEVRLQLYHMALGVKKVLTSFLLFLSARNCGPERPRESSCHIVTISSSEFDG
The experiment can be described thus: cAMP assay in stable cell line expressing recombinant human GPR 119 receptor. The class given is cell-based. To be noted: DMSO = 1. The text has this: A stable cell line expressing recombinant human GPR 119 receptor was established and used to investigate the efficacy of the compounds of the invention based on the intracellular levels of cyclic AMP (cAMP) using commercially available cAMP kits.

The structures appear in SMILES notation.

In the case of `CCOC(=O)N1CCC(Oc2ncnc(Oc3ccc(/C=C4\SC(=O)NC4=O)cc3)c2C)CC1` [Example 14, (Z)-Ethyl 4-((6-(4-((2,4-dioxothiazolidin-5-ylidene)methyl)phenoxy)-5-methylpyrimidin-4-yl)oxy)piperidine-1-carboxylate], the “Fold increase in cyclic AMP with respective to DMSO” value (shortened to “Fold increase in cyclic AMP”) reads like this: (10 nM compound) 1.40 fold; (100 nM compound) 2.40 fold; (1 uM compound) 6.61 fold.
The like results for `O=C1NC(=O)/C(=C/c2cccc(Oc3cc(OC4CCN(Cc5ccccc5)CC4)ncn3)c2)S1` [Example 39, (Z)-5-(3-((6-((1-Benzylpiperidin-4-yl)oxy)pyrimidin-4-yl)oxy)benzylidene)thiazolidine-2,4-dione] were, in that order, 0.85 fold, 1.38 fold and 2.20 fold.
The like results for `Cc1c(Oc2ccc(/C=C3\SC(=O)NC3=O)cc2)ncnc1OC1CCN(c2ncccn2)CC1` [Example 17, (Z)-5-(4-((5-Methyl-6-((1-(pyrimidin-2-yl)piperidin-4-yl)oxy)pyrimidin-4-yl)oxy)benzylidene)thiazolidine-2,4-dione] were, in that order, 0.84 fold, 1.06 fold and 2.57 fold.
For the compound `CCOC(=O)N1CCC(Oc2ncnc(Oc3cccc(/C=C4\SC(=O)N(C)C4=O)c3)c2C)CC1` [Example 4, (Z)-Ethyl-4-((5-methyl-6-(3-((3-methyl-2,4-dioxothiazoldin-5-ylidene)methy 1)phenoxy)pyrimidin-4-yl)oxy)piperidine-1-carboxylate], the “Fold increase in cyclic AMP” value by setting is: (10 nM compound) 4.52 fold; (100 nM compound) 4.95 fold; (1 uM compound) 7.17 fold.
Take `CC(C)COC(=O)N1CCC(Oc2cc(Oc3ccc(/C=C4\SC(=O)NC4=O)cc3)ncn2)CC1` [Example 34, (Z)-Isobutyl 4-((6-(4-((2,4-dioxothiazolidin-5-ylidene)methyl)phenoxy)pyrimidin-4-yl)oxy)piperidine-1-carboxylate]: the “Fold increase in cyclic AMP” value was 0.73 fold (10 nM compound), 1.09 fold (100 nM compound) and 2.22 fold (1 uM compound).
The like results for `CCOC(=O)CN1C(=O)S/C(=C\c2cccc(Oc3ncnc(OC4CCN(C(=O)OC(C)(C)C)CC4)c3C)c2)C1=O` [Example 45, (Z)-tert-Butyl 4-((6-(3-((3-(2-ethoxy-2-oxoethyl)-2,4-dioxothiazolidin-5-ylidene)methyl)phenoxy)-5-methylpyrimidin-4-yl)oxy)piperidine-1-carboxylate] were, in that order, 1.05 fold, 1.33 fold and 2.88 fold.
As for `CCc1cnc(N2CCC(Oc3ncnc(Oc4ccc(/C=C5\SC(=O)N(S(C)(=O)=O)C5=O)cc4)c3C)CC2)nc1` [Example 3, (2)-5-(4-((6-((1-(5-Ethylpyrimidin-2-yl)piperidin-4-yl)oxy)-5-methylpyrimidin-4-yl)oxy)benzylidene)-3-(methylsulfonyl)thiazolidine-2,4-dione], the “Fold increase in cyclic AMP” value was determined as 0.64 fold (10 nM compound), 0.88 fold (100 nM compound) and 2.02 fold (1 uM compound).
For the compound `Cc1c(Oc2cccc(/C=C3\SC(=O)NC3=O)c2)ncnc1OC1CCN(C(=O)OCC(C)C)CC1` [Example 22, (Z)-iso-Butyl 4-((6-(3-((2,4-dioxothiazolidin-5-ylidene)methyl)phenoxy)-5-methylpyrimidin-4-yl)oxy)piperidine-1-carboxylate], the “Fold increase in cyclic AMP” value is reported as 0.95 fold (10 nM compound), 1.82 fold (100 nM compound) and 1.66 fold (1 uM compound).
For the compound `CC(C)COC(=O)N1CCC(Oc2cc(Oc3cccc(/C=C4\SC(=O)NC4=O)c3)ncn2)CC1` [Example 54, (Z)-Isobutyl 4-((6-(3-((2,4-dioxothiazolidin-5-ylidene)methyl)phenoxy)pyrimidin-4-yl)oxy)piperidine-1-carboxylate], the “Fold increase in cyclic AMP” value reads like this: (10 nM compound) 1.31 fold; (100 nM compound) 2.28 fold; (1 uM compound) 4.11 fold.
On to `Cc1c(Oc2cccc(/C=C3\SC(=O)NC3=O)c2)ncnc1OC1CCN(Cc2ccccc2)CC1` [Example 27, (Z)-5-(3-((6-((1-Benzylpiperidin-4-yl)oxy)-5-methylpyrimidin-4-yl)oxy)benzylidene)thiazolidine-2,4-dione], for which the “Fold increase in cyclic AMP” value (10 nM compound) is given as 1.38 fold, the “Fold increase in cyclic AMP” value (100 nM compound) amounted to 2.89 fold and the “Fold increase in cyclic AMP” value (1 uM compound) amounted to 4.79 fold.
For `O=C1NC(=O)/C(=C/c2ccc(Oc3cc(OC4CCN(Cc5ccccc5)CC4)ncn3)cc2)S1` [Example 37, (Z)-5-(4-((6-((1-Benzylpiperidin-4-yl)oxy)pyrimidin-4-yl)oxy)benzylidene)thiazolidine-2,4-dione], the “Fold increase in cyclic AMP” value by setting is: (10 nM compound) 0.97 fold; (100 nM compound) 1.47 fold; (1 uM compound) 2.07 fold.
Consider `Cc1c(Oc2ccc(/C=C3\SC(=O)NC3=O)cc2)ncnc1OC1CCN(C(=O)OCC(C)C)CC1` [Example 15, (Z)-iso-Butyl 4-((6-(4-((2,4-dioxothiazolidin-5-ylidene)methyl)phenoxy)-5-methylpyrimidin-4-yl)oxy)piperidine-1-carboxylate], for which the “Fold increase in cyclic AMP” value runs as follows: (10 nM compound) 1.72 fold; (100 nM compound) 2.19 fold; (1 uM compound) 3.28 fold.
In the case of `COC(=O)N1CCC(Oc2cc(Oc3cccc(/C=C4\SC(=O)NC4=O)c3)ncn2)CC1` [Example 36, (Z)-Methyl 4-((6-(3-((2,4-dioxothiazolidin-5-ylidene)methyl)phenoxy)pyrimidin-4-yl)oxy)piperidine-1-carboxylate], the “Fold increase in cyclic AMP” value reads like this: (10 nM compound) 0.80 fold; (100 nM compound) 1.38 fold; (1 uM compound) 2.19 fold.
Turning to `CCc1cnc(N2CCC(Oc3cc(Oc4cccc(/C=C5\SC(=O)NC5=O)c4)ncn3)CC2)nc1` [Example 55], the “Fold increase in cyclic AMP” value stood at 1.18 fold (10 nM compound), 2.86 fold (100 nM compound) and 4.77 fold (1 uM compound).
As for `CC(C)(C)OC(=O)N1CCC(Oc2cc(Oc3ccc(/C=C4\SC(=O)N(S(C)(=O)=O)C4=O)cc3)ncn2)CC1` [Example 24, (Z)-tert-Butyl 4-((6-(4-((3-(methylsulfonyl)-2,4-dioxothiazolidin-5-ylidene)methyl)phenoxy)pyrimidin-4-yl)oxy)piperidine-1-carboxylate], the “Fold increase in cyclic AMP” value came out at 1.07 fold (10 nM compound), 1.11 fold (100 nM compound) and 2.27 fold (1 uM compound).
The like results for `CC(C)c1noc(N2CCC(Oc3cc(Oc4ccc(/C=C5\SC(=O)NC5=O)cc4)ncn3)CC2)n1` [Example 10, (Z)-5-(4-((6-((1-(3-iso-Propyl-1,2,4-oxadiazol-5-yl)piperidin-4-yl)oxy)pyrimidin-4-yl)oxy)benzylidene)thiazolidine-2,4-dione] were, in that order, 1.14 fold, 2.30 fold and 5.06 fold.
As for `COc1cc(/C=C2\SC(=O)NC2=O)ccc1Oc1cc(OC2CCN(C(=O)OC(C)(C)C)CC2)ncn1` [Example 40, (Z)-tert-Butyl 4-((6-(4-((2,4-dioxothiazolidin-5-ylidene)methyl)-2-methoxyphenoxy)pyrimidin-4-yl)oxy)piperidine-1-carboxylate], the “Fold increase in cyclic AMP” value (10 nM compound) was determined as 0.87 fold, the “Fold increase in cyclic AMP” value (100 nM compound) was 1.21 fold and the “Fold increase in cyclic AMP” value (1 uM compound) is 1.66 fold.
Take `CC(C)COC(=O)N1CCC(Oc2cc(Oc3cccc(/C=C4\SC(=O)NC4=O)c3)ncn2)CC1` [Example 33, (Z)-Isobutyl 4-((6-(3-((2,4-dioxothiazolidin-5-ylidene)methyl)phenoxy)pyrimidin-4-yl)oxy)piperidine-1-carboxylate]: the “Fold increase in cyclic AMP” value reads like this: (10 nM compound) 0.83 fold; (100 nM compound) 1.36 fold; (1 uM compound) 2.72 fold.
On to `Cc1c(Oc2cccc(/C=C3\SC(=O)NC3=O)c2)ncnc1OC1CCN(c2nc(C(C)C)no2)CC1` [Example 25, (Z)-5-(3-((6-((1-(3-Isopropyl-1,2,4-oxadiazol-5-yl)piperidin-4-yl)oxy)-5-methylpyrimidin-4-yl)oxy)benzylidene)thiazolidine-2,4-dione], for which the “Fold increase in cyclic AMP” value (10 nM compound) was 3.32 fold, the “Fold increase in cyclic AMP” value (100 nM compound) was found to be 5.81 fold and the “Fold increase in cyclic AMP” value (1 uM compound) turned out to be 1.39 fold.
